Biological target: Trp operon repressor (Escherichia coli (strain K12), UniProt P0A881)
Assay: Binding Assay
Excerpt: Binding assay of L-trptophan and analogues to trp aporepressor

| SMILES | Kd [µM] |
| --- | --- |
| Cc1ccc2[nH]cc(CC(N)C(=O)O)c2c1 [5-Methyl-L-tryptophan, 2] | 3.25 |
| O=C(O)C(O)Cc1c[nH]c2ccccc12 [L-Indole-3-lactic acid, 13] | 35.2 |
| NC(Cc1c[nH]c2ncccc12)C(=O)O [7-Aza-L-tryptophan, 21] | 466 |
| NC(Cc1ccccc1)C(=O)O [L-Phenylalanine, 23] | > 3000 |
| Cn1cc(CC(N)C(=O)O)c2ccccc21 [1-Methyl-L-tryptophan, 8] | 26.4 |
| O=C(O)CCc1c[nH]c2ccccc12 [Indole-3-propionic acid, 4] | 9.74 |
| O=CNC(Cc1c[nH]c2ccccc12)C(=O)O [N-Formyl-L-tryptophan, 18] | 117 |
| OCCc1c[nH]c2ccccc12 [Tryptaphol, 6] | 23.3 |
| Cc1ccc2[nH]cc(CCN)c2c1 [5-Methyl-tryptamine, 10] | 28.8 |
| c1ccc2[nH]ccc2c1 | 25.1 |
| COC(=O)C(N)Cc1c[nH]c2ccccc12 [L-Tryptophan methyl ester, 14] | 37.1 |
| COc1ccc2[nH]cc(CC(N)C(=O)O)c2c1 [5-Methoxyu-L-tryptophan, 11] | 30.7 |
| O=C(O)Cc1c[nH]c2ccccc12 [Indole-3-acetic acid, 16] | 72.9 |
| NCCc1c[nH]c2ccccc12 [Tryptamine, 15] | 41.1 |
| NC(=O)C(N)Cc1c[nH]c2ccccc12 [L-Tryptophanamide, 9] | 27.7 |
| O=C(O)/C=C/c1c[nH]c2ccccc12 [3-Beta-Indole-acrylic acid (Tran), 1] | 0.516 |
| NC(Cc1c[nH]c2cc([N+](=O)[O-])ccc12)C(=O)O [6-Nitro-L-tryptophan, 17] | 75.6 |
| O=C(O)CCCc1c[nH]c2ccccc12 [Indole-3-butyric acid, 3] | 5.51 |
| NC(Cc1c[nH]c2ccc(O)cc12)C(=O)O [5-Hydroxy-L-tryptophan, 22] | 2840 |
| c1ccc2c(c1)CCN2 [Indoline, 19] | 174 |
